Test results from patent US4737513A, “Novel pyrrole derivatives” (Roussel Uclaf, priority 1984, dated 1988).

Tests used:
Assay type in all cases: in vivo
house flies = test: Study of knock-down activity of house flies (direct atomization in a Kearns and March chamber); details: for KT 50: concentration at 0.1 g/l, female house flies 4 days old, acetone (5%) and Isopar L; for knock-down power: general statement in the description
Protocol: (1) Study of knock-down activity of house flies
The test insects were female house flies 4 days old and the test was effected by direct atomization in a Kearns and March chamber using as solvent a mixture of acetone (5%) and Isopar L (petrol solvent) (quantity of solvent used, 2 ml in one second). 50 insects were used per treatment and checks were made every minute for 10 minutes, then at 15 minutes, and the KT50 was determined by the usual methods.

Tetranychus urticae = test: Activity on Tetranychus urticae, test of lethal effect on adults; details: for LD 50: females on treated bean leaves, checked after 80 hours of contact
Protocol: (4) Activity on Tetranychus urticae, test of lethal effect on adults
Bean plants having two cotyledon leaves were used which were treated with a Fisher gun with an acetone solution of the product. After drying, 25 females of the acaridan Tetranychus urticae were placed on each leaf, that is 50 individuals per experimental dose per plant. The efficacity was checked after 80 hours of contact, and the LD 50 was indicated in mg/hl.

[1] = system: cockroaches (Blatella germanica); test: Study of activity by tarsal contact on cockroaches; details: male Blatella germanica; 1 hour on dried acetone deposit; mortality checked at 24 hours, 48 hours, 3 days and 5 days
Protocol: (2) Study of activity by tarsal contact on cockroaches
The insects tested were male cockroaches (Blatella germanica) and the test was carried out by depositing an acetone solution of a certain concentration on the bottom of a Petri dish 20 cm in diameter. After this had dried, 20 male cockroaches were allowed to stay there per concentration for 1 hour, after which they were transferred to a healthy medium and their mortality was checked at 24 hours, 48 hours, 3 days and 5 days. The result was expressed as lethal concentration 50 (LC 50) in mg/m^2.

C#CCn1ccc(COC(=O)[C@@H]2[C@H](C=C(Br)Br)C2(C)C)c1 (relative stereo) [Example 6, [1-(2-propynyl)-1H-pyrrol-3-yl]-methyl (1R,cis) 2,2-dimethyl-3-(-dibromoethenyl)-cyclopropane carboxylate]
KT 50 (house flies): 4.7 min

C=CCn1cc(COC(=O)[C@@H]2[C@H](C=C(Br)Br)C2(C)C)cc1C#N (relative stereo) [Example 54, [1-(2-propenyl)-2-cyano-1H-pyrrol-4-yl]methyl (1R,cis) 2,2-dimethyl-3-(2,2-dibromoethenyl)-cyclopropane carboxylate]
KT 50 (house flies): 4.7 min

C#CCn1ccc(COC(=O)[C@@H]2[C@H](/C=C\C(=O)OC)C2(C)C)c1 [Example 1, [1-(2-propynyl)-1H-pyrrol-3-yl]-methyl (1R,cisΔZ) 2,2-dimethyl-3-(3-methoxy-3-oxo-1-propenyl)-cyclopropane carboxylate]
KT 50 (house flies): 1.3 min | knock-down power (house flies): particularly remarkable

C#CCn1ccc(COC(=O)[C@@H]2[C@H](/C=C(/F)C(=O)OCC)C2(C)C)c1 [Example 2, [1-(2-propynyl)-1H-pyrrol-3-yl]-methyl (1R,cisΔE) 2,2-dimethyl-3-(3-ethoxy-3-oxo-2-fluoro-1-propenyl)-cyclopropane carboxylate]
KT 50 (house flies): 1.6 min | knock-down power (house flies): particularly remarkable

C#CCn1ccc(COC(=O)[C@@H]2[C@H](/C=C\C(=O)OC(C)(C)C)C2(C)C)c1 [Example 3, [1-(2-propynyl)-1H-pyrrol-3-yl]-methyl (1R,cis,ΔZ) 2,2-dimethyl-3-(3-tert-butyloxy-3-oxo-1-propenyl)-cyclopropane carboxylate]
KT 50 (house flies): 5.8 min

C#CCn1ccc(COC(=O)[C@@H]2[C@H](/C=C(/F)C(=O)OC)C2(C)C)c1 [Example 4, [1-(2-propynyl)-1H-pyrrol-3-yl]-methyl (1R,cisΔE) 2,2-dimethyl-3-(3-methoxy-3-oxo-2-fluoro-1-propenyl)-cyclopropane carboxylate]
KT 50 (house flies): 2.4 min

C#CCn1ccc(COC(=O)[C@@H]2[C@H](/C=C(/F)C(=O)OC(C)(C)C)C2(C)C)c1 [Example 5, [1-(2-propynyl)-1H-pyrrol-3-yl]-methyl (1R,cis,ΔE) 2,2-dimethyl-3-(3-tert-butoxy-3-oxo-2-fluoro-1-propenyl)-cyclopropane carboxylate]
KT 50 (house flies): 3.2 min

C#CCn1ccc(C(C#N)OC(=O)[C@@H]2[C@H](/C=C(/F)C(=O)OCC)C2(C)C)c1 (stereo partly drawn) [Example 15, cyano-[1-(2-propynyl)-1H-pyrrol-3-yl]-methyl (1R,cisΔE) 2,2-dimethyl-3-(3-ethoxy-3-oxo-2-fluoro-1-propenyl)-cyclopropane carboxylate]
KT 50 (house flies): 1.8 min | knock-down power (house flies): particularly remarkable

C#CCn1ccc(COC(=O)[C@@H]2[C@H](C=C(Br)Br)C2(C)C)c1C#N [Example 26]
KT 50 (house flies): 3.5 min

C#CCn1ccc(COC(=O)[C@@H]2[C@H](/C=C(/F)C(=O)OC(C)(C)C)C2(C)C)c1C(F)(F)F [Example 40, [2-trifluoromethyl-1-(2-propynyl)-1H-pyrrol-3-yl]-methyl (1R,cis,ΔE) 2,2-dimethyl-3-(3-tertbutyloxy-3-oxo-2-fluoropenyl)-cyclopropane carboxylate]
KT 50 (house flies): 5.6 min | knock-down power (house flies): particularly remarkable | acaricidal effect on Tetranychus urticae (Tetranychus urticae; conclusion of the test): remarkable acaricidal effect | LD 50 (Tetranychus urticae): 32 mg/hl

C#CCn1cc(C(C#N)OC(=O)[C@@H]2[C@H](/C=C(/F)C(=O)OCC)C2(C)C)cc1C#N (stereo partly drawn) [Example 44]
KT 50 (house flies): 2.2 min

C#CCn1cc(COC(=O)[C@@H]2[C@H](/C=C(/F)C(=O)OC(C)(C)C)C2(C)C)c(C(F)(F)F)c1 [Example 45, [1-(2-propynyl)-3-trifluoromethyl)-1H-pyrrol-4-yl]methyl (1R,cisΔE) 2,2-dimethyl-3-[2-fluoro-3-oxo-3-tertbutoxypropenyl]-cyclopropane carboxylate]
KT 50 (house flies): 6.1 min | lethal concentration 50 (LC 50) [1]: 6.4 mg/m^2 | LD 50 (Tetranychus urticae): 264 mg/hl

C=CCn1ccc(C(C#N)OC(=O)[C@@H]2[C@H](C=C(Br)Br)C2(C)C)c1 (stereo partly drawn) [Example 50, (R,S)-cyano-[1-(2-propenyl)-1H-pyrrol-3-yl]methyl (1R,cis) 2,2-dimethyl-3-(2,2-dibromoethenyl)cyclopropane carboxylate]
KT 50 (house flies): 3.5 min

C#CCn1ccc(COC(=O)[C@@H]2[C@H](/C=C\C(=O)OC)C2(C)C)c1C#N [Example 51, [1-(2-propynyl)-2-cyano-1H-pyrrol-3-yl]methyl (1R,cis) 2,2-dimethyl-3-(3-methoxy-3-oxo-1-propenyl)cyclopropane carboxylate]
KT 50 (house flies): 1.9 min

C#CCn1ccc(COC(=O)[C@@H]2[C@H](/C=C(/F)C(=O)OCC)C2(C)C)c1C#N [Example 52, [1-(2-propynyl)-2-cyano-1H-pyrrol-3-yl]methyl (1R,cis) 2,2-dimethyl-3-(2-fluoro-2-ethoxy-2-oxo-1-propenyl)cyclopropane carboxylate]
KT 50 (house flies): 1.5 min

C=CCn1cc(COC(=O)[C@@H]2[C@H](/C=C(/F)C(=O)OCC)C2(C)C)cc1C#N [Example 53, [1-(2-propenyl)-2-cyano-1H-pyrrol-4-yl]methyl (1R,cisΔE) 2,2-dimethyl-3-[2-fluoro-2-ethoxy-2-oxo-1-propenyl]cyclopropane carboxylate]
KT 50 (house flies): 2.4 min

C=CCn1cc(C(C#N)OC(=O)[C@@H]2[C@H](C=C(Br)Br)C2(C)C)cc1C#N (stereo partly drawn) [Example 55, (R,S)-cyano-[1-(2-propenyl)-2-cyano-1H-pyrrol-4-yl]-methyl (1R,cis) 2,2-dimethyl-3-(2,2-dibromoethenyl)-cyclopropane carboxylate]
KT 50 (house flies): 8.7 min

C=CCn1ccc(COC(=O)[C@@H]2[C@H](/C=C(/F)C(=O)OCC)C2(C)C)c1 [Example 56, 1-(2-propenyl-1H-pyrrol-3-yl)-methyl (1R,cisΔE) 2,2-dimethyl-3-(2-fluoro-3-ethoxy 3-oxo-1-propenyl)-cyclopropane carboxylate]
KT 50 (house flies): 4.0 min

C#CCn1cc(C(C#C)OC(=O)[C@@H]2[C@H](/C=C(/F)C(=O)OCC)C2(C)C)cc1C#N (stereo partly drawn) [Example 57, [1-(2-propynyl)-2-cyano-1H-pyrrol-4-yl]-propyn-2-yl (1R,cisΔE) 2,2-dimethyl-3-[2-fluoro-3-ethoxy-3-oxo-1-propenyl]-cyclopropane carboxylate]
KT 50 (house flies): 4.0 min

C#CCn1cc(C(C)OC(=O)[C@@H]2[C@H](/C=C(/F)C(=O)OCC)C2(C)C)cc1C#N (stereo partly drawn) [Example 60, [1-(2-propynyl)-2-cyano-1H-pyrrol-4-yl]-ethyl (1R,cisΔE) 2,2-dimethyl-3-(2-fluoro-3-ethoxy-3-oxo-1-propenyl)-cyclopropane carboxylate]
KT 50 (house flies): 1.8 min

CCOC(=O)/C(F)=C\[C@H]1[C@@H](C(=O)OCc2cc(C#N)n(C/C=C\Cl)c2)C1(C)C [Example 65, [2-cyano-[1-(3-chloro-2-(Z)-propenyl]-1H-pyrrol-4-yl]-methyl (1R,cis,ΔE) 2,2-dimethyl-3-(2-fluoro-3-ethoxy-3-oxo-1-propenyl)-cyclopropane carboxylate]
KT 50 (house flies): 3.1 min

CCOC(=O)/C(F)=C\[C@H]1[C@@H](C(=O)OCc2cc(C#N)n(C/C=C/Cl)c2)C1(C)C [Example 66, [2-cyano-1-[3-chloro-2-(E)-propenyl]-1H-pyrrol-4-yl]-methyl (1R,cisΔE) 2,2-dimethyl-3-[2-fluoro-3-ethoxy-3-oxo-1-propenyl]-cyclopropane carboxylate]
KT 50 (house flies): 7.9 min

C#CCn1ccc(C(C#N)OC(=O)[C@@H]2[C@H](/C=C(/F)C(=O)OCC)C2(C)C)c1C#N (stereo partly drawn) [Example 67, (R,S) cyano[1-(2-propynyl)-2-cyano-1H-pyrrol-3-yl]-methyl (1R,cisΔE) 2,2-dimethyl-3-(2-fluoro-3-ethoxy-3-oxo-1-propenyl)-cyclopropane carboxylate]
KT 50 (house flies): 3.8 min

C#CCn1cc(COC(=O)[C@@H]2[C@H](/C=C(/F)C(=O)OCC)C2(C)C)cc1C(F)(F)F [Example 70, [1-(2-propynyl)-2,2,2-trifluoromethyl-1H-pyrrol-4-yl]-methyl (1R,cis,ΔE) 2,2-dimethyl-3-[2-fluoro-3-ethoxy-3-oxo-1-propenyl]-cyclopropane carboxylate]
KT 50 (house flies): 3.9 min | lethal concentration 50 (LC 50) [1]: 4.5 mg/m^2 | LD 50 (Tetranychus urticae): 2126 mg/hl

C#CCn1cc(COC(=O)[C@@H]2[C@H](/C=C(/F)C(=O)OCC)C2(C)C)c(C(F)(F)F)c1 [Example 72, [1-(2-propynyl)-3,3,3-trifluoromethyl-1H-pyrrol-4-yl]methyl (1R,cis,ΔE) 2,2-dimethyl-3-[2-fluoro-3-ethoxy-3-oxo-1-propenyl]-cyclopropane carboxylate]
KT 50 (house flies): 3.8 min | lethal concentration 50 (LC 50) [1]: 6.7 mg/m^2
